In patent US20250241840A1, “ORALLY ADMINISTRATED COSMETIC COMPOSITIONS TO TREAT SKIN DRYNESS” (IIAA Limited, priority 2022, published 2025):

How the values were obtained:
skin of the cheek = test: Example 1: 28-day oral hyaluronic acid study, hydration, TEWL and wrinkle depth of the skin of the cheek; assay type: in vivo, human; settings: 200 mg HA orally once daily, 28 days
Procedure: A cachet containing 200 mg hyaluronic acid (HA) was administered orally, once daily, to 30 subjects for 28 days. The hyaluronic acid administered in this manner consisted of hyaluronic acid molecules having molecular weights in a range of from 50 to 2200 kDa. The hydration, TEWL and wrinkle depth of the skin of the cheek of each subject was measured on the first day of the 28-day study and on the last day of the 28-day study. A Courage+Khazaka Dual 580 Multi Probe Adapter System fitted with a Corneometer™ CM 825 probe (obtainable from Courage & Khazaka Electronic GmbH of Mathias-Brüggen-Straße 91, 50829 Köln, Germany) was used to measure the surface hydration of the subjects' skin. A Courage+Khazaka Dual 580 Multi Probe Adapter System fitted with a Tewameter™ 300 probe was used to measure the TEWL of the subjects' skin. A PRIMOS 3D™ optical skin measurement device was used to measure the depth and width of wrinkles in the subjects' skin. The average percentage change in each of the parameters measured from the first day of the 28-day study to the last day of the 28-day study was calculated.

[1] = test system: human subjects with dry skin and mild to moderate atopic dermatitis; settings: 200 mg/day GLA orally; measurements at weeks 0, 4, 8, 12 and 16; cited from earlier work

Compound	Skin surface hydration, average percentage change over the course of the 28-day study (skin of the cheek; Corneometer CM 825)	Skin surface hydration, average percentage change over the course of the 28-day study (skin of the cheek; Corneometer CM 825, listed as HA)	Wrinkle depth, average percentage change over the course of the 28-day study (skin of the cheek; PRIMOS 3D)	TEWL, average percentage change over the course of the 28-day study (skin of the cheek; Tewameter 300)	Effect on TEWL [1]
hyaluronic acid	+10.6%	+10.6%	−18.8%	−3.9%	
CCCCC/C=C\C/C=C\C/C=C\CCCCC(=O)O [GLA, all-cis-6,9,12-octadecatrienoic acid]					reduce TEWL
